According to patent publication US20230119141A1, “USES OF TAXIFOLIN FOR R[…]” (PHYTO TECH CORP., priority 2021, published 2023):

System: SARS-CoV-2
Experiment: SARS-CoV-2 infection in Golden Syrian hamsters, viral loads in swabs and organs
Format: in vivo
Description: The therapeutic efficacy of taxifolin against SARS-CoV-2 infection was examined in Golden Syrian hamsters, a small animal model that most closely recapitulates clinical and pathological features of COVID-19 in humans. See, e.g., Imai, M, et al., Proc. Nat. Acad. Sci. 117(28):16587-16595 (2020); Reagan-Shaw, S., et al., FASEB J. 22:659-661 (2007). […] Animals in the taxifolin group (n=15) received prophylactic treatment of taxifolin (66.7 mg/kg) through oral gavage (OG) before the viral infection.
After SARS-CoV-2 inoculation, animals in the taxifolin group were orally given taxifolin (66.7 mg/kg) at days 1, 3, and 5. Animals in the control group (n=10) received an equal amount of PBS through oral gavage. At day 7, certain animals in the taxifolin (n=6) group and control group (n=5) were sacrificed, and the viral loads in major organs were tested.

SMILES: O=C1c2c(O)cc(O)cc2OC(c2ccc(O)c(O)c2)C1O (stereo not shown) [taxifolin, 2-(3,4-dihydroxyphenyl)-3,5,7-trihydroxychroman-4-one]
- viral load in nasal swabs (day 5 after infection, taxifolin 66.7 mg/kg oral gavage prophylactic and at days 1, 3, 5, n=8, control ~3×10^6): ~7×10^4 RNA copies/100 μL
- viral loads in oral swabs vs control (day 7, taxifolin 66.7 mg/kg oral gavage): decreased the viral loads in oral swabs
- viral loads in the trachea vs control (day 7, taxifolin 66.7 mg/kg oral gavage, n=4 per group): clearly reduced the viral loads in the trachea
- viral loads in nasal swabs vs control (days 3 and 5 after viral infection, taxifolin 66.7 mg/kg oral gavage): significantly lowered the viral loads in nasal swabs
